Tests used:
Type in all cases: cell-based
[1] = test system: Nrf2 transcription factor; assay: AREc32 luciferase reporter assay; conditions: Homo sapiens; AREc32 cells, 19 hours; concentration required to increase GST ARE luciferase reporter activity by 2-fold; read-out: NRF2 ARE 2-Fold (EC2×)
Text: A. AREc32 Luciferase Reporter Assay
The AREc32 luciferase reporter assay allows for quantitative assessment of the endogenous activity of the Nrt2 transcription factor in cultured mammalian cells. AREc32 cells are derived from MCF-7 human breast carcinoma cells that were stably transfected with a reporter construct that contains the firefly luciferase gene located downstream of eight copies of the rat GSTA2 antioxidant response element (ARE) sequence (Wang et al., 2006; Concept Life Sciences Integrated Discovery and Development Services Ltd (CLSIDDS)). Active Nrf2 binds to the ARE sequences and increases expression of the firefly luciferase gene. To assess the Nrf2-activating potential of the test compounds, AREc32 cells were plated in black […] plates at a density of 20,000 cells per well in triplicate in DMEM+10% FBS+0.8 mg/mL Geneticin and incubated at 37° C. with 5% CO2 in a humidified atmosphere. The next day, cells were treated with DMSO (vehicle) or test compound (concentration ranges of 0.4-200 nM or 3.9-2000 nM) for 19 hours. Luciferase activity was determined using the ONE-Glo Luciferase assay (Promega). The luminescence signal was measured on a BMG Pherastar microplate reader. The mean luminescence value from test compound-treated wells was normalized to that from DMSO-treated wells and was represented as fold-induction. Data were analyzed using GraphPad Prism version 6.00 for Windows, GraphPad Software, La Jolla Calif. USA. A non-linear regression curve with log (agonist) vs. response using a variable slope was used to fit the data. Where applicable, a maximum threshold value of 50-fold over DMSO was set. EC2× values were interpolated from the curve. EC2× corresponds to the concentration of test compound required to increase GST ARE Luciferase reporter activity by 2-fold.

[2] = target: T1, Human RAR-related Orphan Receptor Gamma (RORγ) (Homo sapiens, UniProt P51449); assay: RORγ assay (GAL4-RORγ hybrid luciferase reporter, Indigo Biosciences); conditions: inverse-agonist activity, GAL4-RORγ reporter cells, 23 hours
T1 sequence (P51449 269-508 limits assumed): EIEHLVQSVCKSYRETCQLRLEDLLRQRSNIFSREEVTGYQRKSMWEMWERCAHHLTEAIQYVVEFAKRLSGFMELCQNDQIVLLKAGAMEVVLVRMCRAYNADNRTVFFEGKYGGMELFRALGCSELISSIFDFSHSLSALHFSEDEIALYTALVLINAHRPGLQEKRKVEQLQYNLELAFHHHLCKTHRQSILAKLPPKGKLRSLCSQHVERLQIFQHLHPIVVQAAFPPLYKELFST
Text: B. RORγ Assay and Cell Viability
The RORγ assay system was purchased from Indigo Biosciences. This nuclear receptor assay utilizes a human cell line that has been engineered to express a hybrid form of the Human RAR-related Orphan Receptor Gamma (RORγ) at high levels. The N-terminal DNA binding domain (DBD) of the native RORγ receptor was substituted with the yeast GAL4-DBD to generate the GAL4-RORγ hybrid nuclear receptor. The reporter cell line is transfected with a plasmid that encodes the beetle luciferase gene under the control of the GAL4 upstream activating sequence (UAS). GAL4 binds to the UAS and increases transcription of downstream target genes. The GAL4-RORγ hybrid is constitutively active; therefore, the principle application of this reporter assay system is to screen test compounds to quantify inverse-agonist activities against human RORγ. Because the ligand binding domain (LBD) of RORγ is identical to the LBD of RORγt, this assay is an accurate surrogate for evaluating activity of experimental ligands against RORγt. To assess the RORγ inverse-agonist activity of the test compounds, reporter cells were plated in white 96-well plates in triplicate and were treated with DMSO (vehicle) or test compound (concentration ranges of 7.8-2000 nM) at 37° C. with 5% CO2 in a humidified atmosphere for 23 hours. After this incubation, luciferin was added to the wells and luciferase activity was determined by measuring the luminescence signal using a BMG Pherastar microplate reader. Viability was determined using the Live Cell Multiplex Assay (Indigo Biosciences). Values from test compound samples were normalized to those from DMSO-treated samples. Data were analyzed using GraphPad Prism version 6.00 for Windows (GraphPad Software, La Jolla Calif. USA). A non-linear regression analysis with log (inhibitor) vs. normalized response using a variable slope was applied to fit the data and determine the IC50 values for inhibition of RORγ and cell viability. Inhibition that is closely correlated with reduced viability is considered to be non-specific.

IL-17A = assay: IL-17 release from differentiated primary human T-cells (IL-17A HTRF assay); conditions: primary human CD4+ T cells differentiated into Th17 cells, 45-hour incubation, IL-17A in supernatant; read-out: hIL17 IC50
Method: C. IL-17 Release from Differentiated Primary Human T-Cells and Cell Viability
Primary human cryopreserved CD4+ T Cells (Lonza) were thawed according to the manufacturer's recommendations and plated either in Lymphocyte Growth Medium-3 (LGM-3) or X-VIVO 20 media (Lonza) in 96-well tissue culture plates at a density of ˜2×10^5 cells per well, and allowed to recover for approximately 4 hours at 37° C. with 5% CO2 in a humidified atmosphere. After the recovery step, DMSO (vehicle) or test compound at doses ranging from 2 to 500 nM or 4 to 1000 nM in a three-fold dilution series was added to the cells. Three replicate wells were tested for each treatment condition. Final DMSO concentration in each well was 0.1%. Immediately after treatment, CD4+ T cells were activated by adding Dynabeads Human T-Activator CD3/CD28 (Life Technologies; bead-to-cell ratio of 1:2.5) and differentiated into Th17 cells by adding a mixture of the following cytokines: transforming growth factor-β (TGF-β, 5 ng/mL), IL-6 (20 ng/mL), IL-23 (20 ng/mL), and IL-1β (10 ng/mL). Undifferentiated control cells received only cytokine IL-2 (50 ng/mL). All human recombinant cytokines were purchased from R&D Systems. Following a 45-hour incubation at 37° C. with 5% CO2 in a humidified atmosphere, the plates were centrifuged for 3 minutes at 250×g, and half of the supernatant was transferred to anew plate to be used in the IL-17A assay (see below). Cell viability was assessed in the original plate using the CyQuant Direct Assay (Life Technologies). CyQuant reagent (an amount equal to 10% of remaining media volume) was added to the wells, and the plates were then incubated at 37° C. for 75 min. Fluorescence was read on a SpectraMax M2e spectrophotometer at 480 nm (excitation) and 535 nm (emission) wavelengths. CyQuant values from test compound samples were normalized to those from DMSO-treated samples. The concentration of IL-17A in the supernatant was measured using the Homogeneous Time-Resolved Fluorescence (HTRF) assay (Cisbio Bioassays) according to the manufacturer's protocol. The assay was performed at room temperature in low volume, solid white 384-well plates (Greiner Bio-One). Samples and standards (serially-diluted human recombinant IL-17A (0 to 5,000 pg/mL concentration range; Cisbio Bioassays) were incubated with the anti-human IL-17A antibody conjugates (the HTRF donor and acceptor pair) for 16 hours and fluorescence was measured using a Pherastar FS microplate reader (BMG Labtech) in the HTRF mode (excitation at 337 nm and emission at 665 nm and 620 nm). IL-17A levels were assessed in duplicate aliquots of supernatant from each well resulting in a total of six readings per test condition. The 665 nm/620 nm signal ratio was calculated and the concentration of IL-17A in each sample was determined by interpolation from the standard curve. The amount of IL-17A from test compound treated samples were normalized to that of the vehicle-treated samples, set to 100%. Data were analyzed using GraphPad Prism (GraphPad Software, La Jolla California USA). Concentrations of test compound were transformed by taking the logarithm of each concentration used. The IC50 values for compound-mediated reduction in IL-17A levels and cell viability were determined by non-linear regression analysis using the log(inhibitor) vs. normalized response with variable slope equation. Inhibition that is closely correlated with reduced viability is considered to be non-specific.

Compound | IC50 [2] [µM] | IC50 (IL-17A) [µM] | EC (2-fold) [1] [µM]
C[C@H]1C(=O)C(C#N)=C[C@@]2(C)c3c(c(-c4ccncn4)nn3-c3ccc(-c4cncc(F)c4)cc3)CC[C@H]12 [T49] | 0.059 | 0.052 | 0.392
C[C@H]1C(=O)C(C#N)=C[C@@]2(C)c3c(c(-c4ccncn4)nn3-c3ccc(-c4cncnc4)cc3)CC[C@H]12 [T50] | 0.115 | 0.326 | 0.977
C[C@H]1C(=O)C(C#N)=C[C@@]2(C)c3c(c(-c4ccncn4)nn3-c3ccc(-c4cccnc4)cc3F)CC[C@H]12 [T53] | 0.057 | 0.088 | 0.489
C[C@H]1C(=O)C(C#N)=C[C@@]2(C)c3c(c(-c4ccncn4)nn3-c3ccc(-c4ccnc(CF)c4)cc3)CC[C@H]12 [T54] | 0.052 | 0.033 | 0.355
C[C@H]1C(=O)C(C#N)=C[C@@]2(C)c3c(c(-c4ccncn4)nn3-c3ccc(-c4ccc(F)cc4)cn3)CC[C@H]12 [T56] | 0.099 | 0.055 | 0.433
C[C@H]1C(=O)C(C#N)=C[C@@]2(C)c3c(c(-c4ccncn4)nn3-c3ccc(-c4cccnc4)cn3)CC[C@H]12 [T57] | 0.096 | 0.067 | 0.403
C[C@H]1C(=O)C(C#N)=C[C@@]2(C)c3c(c(-c4ccncn4)nn3-c3ccc(-c4cccc(F)c4)cn3)CC[C@H]12 [T58] | 0.128 | 0.043 | 0.355
C[C@H]1C(=O)C(C#N)=C[C@@]2(C)c3c(c(-c4ccncn4)nn3-c3ccc(-c4cccc(CO)c4)cn3)CC[C@H]12 [T60] | 0.101 | 0.141 | 0.44
C[C@H]1C(=O)C(C#N)=C[C@@]2(C)c3c(c(-c4ccncn4)nn3-c3ccc(-c4cccc(CF)c4)cn3)CC[C@H]12 [T61] | 0.136 | 0.115 | 0.251
C[C@H]1C(=O)C(C#N)=C[C@@]2(C)c3c(c(-c4ccncn4)nn3-c3ccc(C(F)(F)F)cn3)CC[C@H]12 [T63] | 0.201 | 0.151 | 0.725

Further lines, with some results ahead:

IC50 [2] [µM] | IC50 (IL-17A) [µM] | Compound | EC (2-fold) [1] [µM]
0.068 | 0.026 | C[C@H]1C(=O)C(C#N)=C[C@@]2(C)c3c(c(-c4ccccc4)nn3-c3ccc(-c4ccc(N(C)C)cc4)cc3)CC[C@H]12 [T47] | 0.253
0.045 | 0.03 | C[C@H]1C(=O)C(C#N)=C[C@@]2(C)c3c(c(-c4ccncn4)nn3-c3ccc(-c4ccccc4)cc3)CC[C@H]12 [T48] | 0.187
0.048 | 0.091 | C[C@H]1C(=O)C(C#N)=C[C@@]2(C)c3c(c(-c4ccncn4)nn3-c3ccc(-c4cccnc4)cc3)CC[C@H]12 [T51] | 0.501
0.174 | 0.149 | C[C@H]1C(=O)C(C#N)=C[C@@]2(C)c3c(c(-c4ccncn4)nn3-c3ccc(-c4ccnc(CO)c4)cc3)CC[C@H]12 [T55] | 0.609
0.113 | 0.099 | C[C@H]1C(=O)C(C#N)=C[C@@]2(C)c3c(c(-c4ccncn4)nn3-c3ccc(-c4ccccc4)cn3)CC[C@H]12 [T59] | 0.449
0.122 | 0.144 | C[C@H]1C(=O)C(C#N)=C[C@@]2(C)c3c(c(-c4ccncn4)nn3-c3ccc(-c4ccccc4)nc3)CC[C@H]12 [T64] | 0.636
0.077 | 0.012 | C[C@H]1C(=O)C(C#N)=C[C@@]2(C)c3c(c(-c4ccc(F)cc4)nn3-c3ccc(-c4ccccc4)cc3)CC[C@H]12 [T65] | 0.201
0.058 | 0.019 | C[C@H]1C(=O)C(C#N)=C[C@@]2(C)c3c(c(-c4ccccc4F)nn3-c3ccc(-c4ccccc4)cc3)CC[C@H]12 [T66] | 0.128
0.049 | 0.026 | C[C@H]1C(=O)C(C#N)=C[C@@]2(C)c3c(c(-c4ccncc4)nn3-c3ccc(-c4ccccc4)cc3)CC[C@H]12 [T67] | 0.269
0.036 | 0.027 | C[C@H]1C(=O)C(C#N)=C[C@@]2(C)c3c(c(-c4cccnc4)nn3-c3ccc(-c4ccccc4)cc3)CC[C@H]12 [T68] | 0.248
0.142 | 0.012 | Cc1ccc(-c2nn(-c3ccc(-c4ccccc4)cc3)c3c2CC[C@@H]2[C@@H](C)C(=O)C(C#N)=C[C@@]32C)cc1 [T69] | 0.38
0.075 | 0.058 | C[C@H]1C(=O)C(C#N)=C[C@@]2(C)c3c(c(-c4cncnc4)nn3-c3ccc(-c4ccccc4)cc3)CC[C@H]12 [T70] | 0.472
0.294 | 0.009 | CC(C)c1cccc(-c2nn(-c3ccc(-c4ccccc4)cc3)c3c2CC[C@@H]2[C@@H](C)C(=O)C(C#N)=C[C@@]32C)c1 [T71] | 0.257

Reference: US11993574B2, “Pyrazole and imidazole compounds for inhibition of IL-17 and RORgamma” (REATA PHARMACEUTICALS, INC., priority 2018, dated 2024)
